ChEMBL document CHEMBL3425509, “Design, synthesis, and biological evaluation of benzofuran- and 2,3-dihydrobenzofuran-2-carboxylic acid N-(substituted)phenylamide derivatives as anticancer agents and inhibitors of NF-κB” (Bioorg Med Chem Lett, 2015)

Key:
NCI-H23 [1] = test: Cytotoxicity against human NCI-H23 cells assessed as cell viability at 10 uM after 72 hrs by sulforhodamine B assay relative to control; format: functional; settings: NCI-H23, 72 h, read-out: Activity
ACHN [2] = test: Cytotoxicity against human ACHN cells assessed as cell viability at 10 uM after 72 hrs by sulforhodamine B assay relative to control; format: functional; settings: read-out: Activity
[3] = Cytotoxicity against human HCT15 cells assessed as cell viability at 10 uM after 72 hrs by sulforhodamine B assay relative to control; format: functional; settings: HCT-15, 72 h, read-out: Activity
MDA-MB-231 [4] = test: Cytotoxicity against human MDA-MB-231 cells assessed as cell viability at 10 uM after 72 hrs by sulforhodamine B assay relative to control; format: functional; settings: MDA-MB-231, 72 h, read-out: Activity
[5] = Cytotoxicity against human NUGC3 cells assessed as cell viability at 10 uM after 72 hrs by sulforhodamine B assay relative to control; format: functional; settings: NUGC-3, 72 h, read-out: Activity
[6] = target: Nuclear factor NF-kappa-B complex (Homo sapiens) (UniProt Q00653+P19838+Q04206); test: Inhibition of NF-kappaB (unknown origin) transcriptional activity in LPS-induced mouse RAW264.7 cells at 30 uM after 1 hr by secreted alkaline phosphatase assay relative to control; format: cell-based
[7] = Cytotoxicity against human PC3 cells assessed as cell viability at 10 uM after 72 hrs by sulforhodamine B assay relative to control; format: functional; settings: PC-3, 72 h, read-out: Activity
[8] = target: Nuclear factor NF-kappa-B complex (Homo sapiens, UniProt P19838+Q00653+Q04206); test: Inhibition of NF-kappaB (unknown origin) transcriptional activity in LPS-induced mouse RAW264.7 cells after 1 hr by secreted alkaline phosphatase assay; format: cell-based
[9] = Cytotoxicity against human HCT15 cells assessed as growth inhibition after 72 hrs by sulforhodamine B assay; format: functional; settings: HCT-15, 72 h
[10] = Cytotoxicity against human NUGC3 cells assessed as growth inhibition after 72 hrs by sulforhodamine B assay; format: functional; settings: NUGC-3, 72 h
[11] = Cytotoxicity against human PC3 cells assessed as growth inhibition after 72 hrs by sulforhodamine B assay; format: functional; settings: PC-3, 72 h
MDA-MB-231 [12] = test: Cytotoxicity against human MDA-MB-231 cells assessed as growth inhibition after 72 hrs by sulforhodamine B assay; format: functional; settings: MDA-MB-231, 72 h
ACHN [13] = test: Cytotoxicity against human ACHN cells assessed as growth inhibition after 72 hrs by sulforhodamine B assay; format: functional
NCI-H23 [14] = test: Cytotoxicity against human NCI-H23 cells assessed as growth inhibition after 72 hrs by sulforhodamine B assay; format: functional; settings: NCI-H23, 72 h

Sequence of Nuclear factor NF-kappa-B complex (Homo sapiens) (P19838 whole entry, looked up): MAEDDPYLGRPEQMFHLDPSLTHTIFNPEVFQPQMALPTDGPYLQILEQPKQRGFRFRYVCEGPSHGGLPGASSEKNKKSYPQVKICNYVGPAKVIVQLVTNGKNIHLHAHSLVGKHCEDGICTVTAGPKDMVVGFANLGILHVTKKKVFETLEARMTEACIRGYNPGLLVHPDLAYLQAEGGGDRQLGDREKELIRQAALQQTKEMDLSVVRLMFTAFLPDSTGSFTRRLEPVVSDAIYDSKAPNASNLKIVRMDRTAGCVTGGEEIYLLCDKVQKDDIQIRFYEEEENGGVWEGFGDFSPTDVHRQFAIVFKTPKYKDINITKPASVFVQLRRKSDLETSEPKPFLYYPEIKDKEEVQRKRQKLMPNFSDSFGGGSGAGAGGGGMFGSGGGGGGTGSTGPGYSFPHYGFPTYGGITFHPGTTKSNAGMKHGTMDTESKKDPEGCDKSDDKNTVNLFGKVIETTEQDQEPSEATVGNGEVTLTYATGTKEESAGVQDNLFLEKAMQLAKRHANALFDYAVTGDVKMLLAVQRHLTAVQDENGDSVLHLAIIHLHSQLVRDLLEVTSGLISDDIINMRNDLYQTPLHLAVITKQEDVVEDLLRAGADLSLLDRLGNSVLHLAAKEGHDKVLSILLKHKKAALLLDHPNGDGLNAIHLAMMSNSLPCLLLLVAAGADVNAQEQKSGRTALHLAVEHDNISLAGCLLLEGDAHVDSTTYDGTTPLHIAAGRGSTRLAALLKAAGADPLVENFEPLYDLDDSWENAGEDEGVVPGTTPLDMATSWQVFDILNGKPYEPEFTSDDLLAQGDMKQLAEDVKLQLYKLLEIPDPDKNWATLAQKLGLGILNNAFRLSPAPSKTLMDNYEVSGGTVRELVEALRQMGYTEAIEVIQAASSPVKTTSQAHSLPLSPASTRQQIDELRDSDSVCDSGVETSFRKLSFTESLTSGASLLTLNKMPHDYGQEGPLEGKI
Sequence of Nuclear factor NF-kappa-B complex (Homo sapiens) (Q00653 whole entry, looked up): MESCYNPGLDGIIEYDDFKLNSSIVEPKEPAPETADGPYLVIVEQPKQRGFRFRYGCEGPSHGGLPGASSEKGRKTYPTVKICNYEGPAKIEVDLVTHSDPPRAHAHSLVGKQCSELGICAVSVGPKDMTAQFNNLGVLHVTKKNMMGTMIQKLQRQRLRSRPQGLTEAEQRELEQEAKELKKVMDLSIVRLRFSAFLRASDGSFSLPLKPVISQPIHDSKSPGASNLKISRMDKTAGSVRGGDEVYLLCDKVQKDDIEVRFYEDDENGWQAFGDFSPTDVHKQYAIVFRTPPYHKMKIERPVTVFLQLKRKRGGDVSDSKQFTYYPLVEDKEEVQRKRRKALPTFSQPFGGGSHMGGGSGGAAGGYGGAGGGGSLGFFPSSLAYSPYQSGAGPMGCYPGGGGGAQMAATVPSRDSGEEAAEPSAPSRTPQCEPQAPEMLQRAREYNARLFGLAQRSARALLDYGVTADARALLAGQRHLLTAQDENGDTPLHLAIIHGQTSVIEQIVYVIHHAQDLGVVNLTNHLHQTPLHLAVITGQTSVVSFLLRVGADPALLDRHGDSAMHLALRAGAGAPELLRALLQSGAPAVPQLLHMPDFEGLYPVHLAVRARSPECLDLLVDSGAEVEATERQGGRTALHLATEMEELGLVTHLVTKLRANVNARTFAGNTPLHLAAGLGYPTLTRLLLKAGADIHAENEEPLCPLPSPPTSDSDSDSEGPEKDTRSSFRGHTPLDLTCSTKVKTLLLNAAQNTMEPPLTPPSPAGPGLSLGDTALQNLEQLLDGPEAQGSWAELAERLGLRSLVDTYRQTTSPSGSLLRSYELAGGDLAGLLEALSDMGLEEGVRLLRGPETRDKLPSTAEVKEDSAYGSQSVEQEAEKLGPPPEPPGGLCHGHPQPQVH
Sequence of Nuclear factor NF-kappa-B complex (Homo sapiens) (Q04206 whole entry, looked up): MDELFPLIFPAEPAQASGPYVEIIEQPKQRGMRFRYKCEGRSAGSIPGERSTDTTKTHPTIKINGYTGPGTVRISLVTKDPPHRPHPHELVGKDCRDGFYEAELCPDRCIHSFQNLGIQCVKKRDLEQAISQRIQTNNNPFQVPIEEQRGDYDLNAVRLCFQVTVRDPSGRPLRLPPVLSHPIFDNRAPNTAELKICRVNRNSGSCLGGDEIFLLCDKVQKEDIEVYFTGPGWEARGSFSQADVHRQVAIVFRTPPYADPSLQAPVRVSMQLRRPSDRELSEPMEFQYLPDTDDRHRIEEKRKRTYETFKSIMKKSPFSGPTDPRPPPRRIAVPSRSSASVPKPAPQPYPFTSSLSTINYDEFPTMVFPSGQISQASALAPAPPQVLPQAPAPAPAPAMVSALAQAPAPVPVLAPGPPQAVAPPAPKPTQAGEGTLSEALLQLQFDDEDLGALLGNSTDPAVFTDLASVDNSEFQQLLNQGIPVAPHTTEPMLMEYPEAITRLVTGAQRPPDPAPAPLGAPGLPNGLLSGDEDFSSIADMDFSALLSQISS
Sequence of Nuclear factor NF-kappa-B complex (P19838 1-433 limits assumed): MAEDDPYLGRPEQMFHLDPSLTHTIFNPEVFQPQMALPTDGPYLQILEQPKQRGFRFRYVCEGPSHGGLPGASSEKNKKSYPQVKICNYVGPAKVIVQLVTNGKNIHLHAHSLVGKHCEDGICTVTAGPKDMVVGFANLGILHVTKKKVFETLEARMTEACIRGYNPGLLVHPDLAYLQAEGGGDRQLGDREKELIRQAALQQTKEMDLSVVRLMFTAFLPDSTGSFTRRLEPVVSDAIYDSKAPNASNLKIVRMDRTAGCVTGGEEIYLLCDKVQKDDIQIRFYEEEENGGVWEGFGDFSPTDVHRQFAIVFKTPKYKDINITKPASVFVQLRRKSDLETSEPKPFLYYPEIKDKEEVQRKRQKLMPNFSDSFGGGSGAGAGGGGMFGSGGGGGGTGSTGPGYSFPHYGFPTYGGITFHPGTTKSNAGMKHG
Sequence of Nuclear factor NF-kappa-B complex (Q00653 1-454 limits assumed): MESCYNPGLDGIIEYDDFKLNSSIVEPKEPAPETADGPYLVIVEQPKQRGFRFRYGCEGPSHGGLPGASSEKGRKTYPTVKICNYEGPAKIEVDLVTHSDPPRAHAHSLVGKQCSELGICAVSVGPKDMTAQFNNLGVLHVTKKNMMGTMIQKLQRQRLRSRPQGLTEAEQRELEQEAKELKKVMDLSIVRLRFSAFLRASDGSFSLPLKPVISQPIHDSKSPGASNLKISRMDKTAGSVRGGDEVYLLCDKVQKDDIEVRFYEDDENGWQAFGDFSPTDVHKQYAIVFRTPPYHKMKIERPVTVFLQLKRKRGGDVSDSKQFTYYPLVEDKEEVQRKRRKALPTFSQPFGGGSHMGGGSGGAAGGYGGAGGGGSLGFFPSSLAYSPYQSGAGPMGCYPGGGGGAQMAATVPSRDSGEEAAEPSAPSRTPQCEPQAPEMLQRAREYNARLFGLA
Sequence of Nuclear factor NF-kappa-B complex (Q04206 whole entry): as the sequence (Q04206 whole entry, looked up) above

inhibition [6]	SMILES	viability at 10 µM (NCI-H23 [1])	viability at 10 µM (ACHN [2])	viability at 10 µM [3]	viability at 10 µM (MDA-MB-231 [4])	viability at 10 µM [5]	viability at 10 µM [7]	IC50 [8]	GI50 [9]	GI50 [10]	GI50 [11]	GI50 (MDA-MB-231 [12])	GI50 (ACHN [13])	GI50 (NCI-H23 [14])
16.5%	COc1cccc(NC(=O)C2Cc3ccccc3O2)c1 (stereo not given)	102%	135%	99%	80%	106%	89%							
42.5%	O=C(Nc1cc(Cl)ccc1Cl)C1Cc2ccccc2O1 (stereo not given)	90%	101%	77%	74%	105%	84%							
65%	O=C(Nc1ccc(Cl)c(Cl)c1)C1Cc2ccccc2O1 (stereo not given)	94%	109%	88%	98%	107%	99%	23000 nM						
20%	O=C(Nc1cc(Cl)cc(Cl)c1)c1cc2ccccc2o1	100%	99%	95%	102%	93%	99%							
40%	O=C(Nc1cccc([N+](=O)[O-])c1)C1Cc2ccccc2O1 (stereo not given)	95%	109%	83%	92%	83%	77%							
34%	O=C(Nc1cc(C(F)(F)F)ccc1C(F)(F)F)C1Cc2ccccc2O1 (stereo not given)	87%	105%	81%	98%	99%	88%							
	S=C(S)N1CCCC1 [PYRROLIDINE DITHIOCARBAMATE]							34500 nM	130 nM	140 nM	170 nM	160 nM	230 nM	100 nM
70%	Cc1ccc(NC(=O)c2cc3ccccc3o2)cc1C	100%	103%	95%	92%	91%	92%							
37%	O=C(Nc1cccc(Cl)c1)c1cc2ccccc2o1	61%	69%	52%	80%	83%	95%							
57.5%	O=C(Nc1ccccc1C(F)(F)F)c1cc2ccccc2o1	100%	98%	99%	114%	93%	95%							
37.5%	O=C(Nc1ccccc1Cl)C1Cc2ccccc2O1 (stereo not given)	104%	87%	102%	81%	104%	96%							
34%	O=C(Nc1ccc([N+](=O)[O-])cc1)C1Cc2ccccc2O1 (stereo not given)	77%	93%	81%	85%	86%	10%				1860 nM			
63%	COc1cc(NC(=O)c2cc3ccccc3o2)cc(OC)c1	102%	102%	95%	106%	90%	92%							
34.5%	COc1cccc(NC(=O)c2cc3ccccc3o2)c1	105%	105%	87%	127%	99%	106%							
